How the values were obtained:
Echinochloa crus-galli [1] = assay: Post-emergence herbicidal effect; format: in vivo; settings: assessed visually after about 3 weeks vs untreated controls
Summary of the method: (§1)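 Herbicidal effect was rated visually roughly 3 weeks after foliar treatment, as % versus untreated plants, with 0% meaning the same as controls and 100% meaning dead. Plants were treated at the one-leaf stage in the greenhouse with aqueous WP or EC sprays at 600–800 L/ha containing 0.2% wetter.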

Veronica persica [2] = assay: Post-emergence herbicidal effect; format: in vivo; settings: assessed visually after about 3 weeks vs untreated controls
Summary of the method: as §1

Avena fatua [3] = assay: Post-emergence herbicidal effect; format: in vivo; settings: assessed visually after about 3 weeks vs untreated controls
Summary of the method: as §1

Ipomoea purpurea [4] = assay: Post-emergence herbicidal effect; format: in vivo; settings: assessed visually after about 3 weeks vs untreated controls
Summary of the method: as §1

Setaria viridis [5] = assay: Post-emergence herbicidal effect; format: in vivo; settings: assessed visually after about 3 weeks vs untreated controls
Summary of the method: as §1

Stellaria media [6] = assay: Post-emergence herbicidal effect; format: in vivo; settings: assessed visually after about 3 weeks vs untreated controls
Summary of the method: as §1

Polygonum convolvulus [7] = assay: Post-emergence herbicidal effect; format: in vivo; settings: assessed visually after about 3 weeks vs untreated controls
Summary of the method: as §1

Matricaria inodora [8] = assay: Post-emergence herbicidal effect; format: in vivo; settings: assessed visually after about 3 weeks vs untreated controls
Summary of the method: as §1

Abutilon theophrasti [9] = assay: Post-emergence herbicidal effect; format: in vivo; settings: assessed visually after about 3 weeks vs untreated controls
Summary of the method: as §1

Lolium multiflorum [10] = assay: Post-emergence herbicidal effect; format: in vivo; settings: assessed visually after about 3 weeks vs untreated controls
Summary of the method: as §1

Viola tricolor [11] = assay: Post-emergence herbicidal effect; format: in vivo; settings: assessed visually after about 3 weeks vs untreated controls
Summary of the method: as §1

Amaranthus retroflexus [12] = assay: Post-emergence herbicidal effect; format: in vivo; settings: assessed visually after about 3 weeks vs untreated controls
Summary of the method: as §1

Alopecurus myosuroides [13] = assay: Post-emergence herbicidal effect; format: in vivo; settings: assessed visually after about 3 weeks vs untreated controls
Summary of the method: as §1

Echinochloa crus-galli [14] = assay: Pre-emergence herbicidal effect; format: in vivo; settings: scored visually after 3 weeks
Summary of the method: (§2)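 Scoring: visual, 3 weeks, % vs untreated (100% = died). Treatment: WP or EC in water, 0.2% wetting agent, sprayed on covering soil after sowing in sandy loam.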

Veronica persica [15] = assay: Pre-emergence herbicidal effect; format: in vivo; settings: scored visually after 3 weeks
Summary of the method: as §2

Avena fatua [16] = assay: Pre-emergence herbicidal effect; format: in vivo; settings: Dosage 320 g/ha, scored visually after 3 weeks
Summary of the method: as §2

Ipomoea purpurea [17] = assay: Pre-emergence herbicidal effect; format: in vivo; settings: scored visually after 3 weeks
Summary of the method: as §2

Setaria viridis [18] = assay: Pre-emergence herbicidal effect; format: in vivo; settings: scored visually after 3 weeks
Summary of the method: as §2

Stellaria media [19] = assay: Pre-emergence herbicidal effect; format: in vivo; settings: scored visually after 3 weeks
Summary of the method: as §2

Polygonum convolvulus [20] = assay: Pre-emergence herbicidal effect; format: in vivo; settings: scored visually after 3 weeks
Summary of the method: as §2

Matricaria inodora [21] = assay: Pre-emergence herbicidal effect; format: in vivo; settings: scored visually after 3 weeks
Summary of the method: as §2

Abutilon theophrasti [22] = assay: Pre-emergence herbicidal effect; format: in vivo; settings: scored visually after 3 weeks
Summary of the method: as §2

Lolium multiflorum [23] = assay: Pre-emergence herbicidal effect; format: in vivo; settings: scored visually after 3 weeks
Summary of the method: as §2

Viola tricolor [24] = assay: Pre-emergence herbicidal effect; format: in vivo; settings: scored visually after 3 weeks
Summary of the method: as §2

Amaranthus retroflexus [25] = assay: Pre-emergence herbicidal effect; format: in vivo; settings: scored visually after 3 weeks
Summary of the method: as §2

Alopecurus myosuroides [26] = assay: Pre-emergence herbicidal effect; format: in vivo; settings: scored visually after 3 weeks
Summary of the method: as §2

logP (HCOOH) = format: physicochemical; settings: for chromatographic logP: HCOOH (formic acid)
From the text: Table 2 (physicochemical characterization of selected synthesis examples)

Cyperus esculentus = assay: Pre-emergence herbicidal effect; format: in vivo; settings: Dosage 320 g/ha, scored visually after 3 weeks
Summary of the method: as §2

Cc1cc2c(s1)CCCC2Nc1ncc(C(F)(F)F)c(N)n1 (racemic) [compound 257]
post-emergence efficacy ECHCG (Echinochloa crus-galli [1]; 80 g/ha): 90% | post-emergence efficacy ECHCG (Echinochloa crus-galli [1]; 320 g/ha): 100% | post-emergence efficacy VERPE (Veronica persica [2]; 320 g/ha): 100% | post-emergence efficacy AVEFA (Avena fatua [3]; 80 g/ha): 70% | post-emergence efficacy AVEFA (Avena fatua [3]; 320 g/ha): 100% | post-emergence efficacy PHBPU (Ipomoea purpurea [4]; 80 g/ha): 80% | post-emergence efficacy PHBPU (Ipomoea purpurea [4]; 320 g/ha): 90% | post-emergence efficacy SETVI (Setaria viridis [5]; 80 g/ha): 90% | post-emergence efficacy SETVI (Setaria viridis [5]; 320 g/ha): 90% | post-emergence efficacy STEME (Stellaria media [6]; 80 g/ha): 80% | post-emergence efficacy STEME (Stellaria media [6]; 320 g/ha): 100% | post-emergence efficacy POLCO (Polygonum convolvulus [7]; 80 g/ha): 60% | post-emergence efficacy POLCO (Polygonum convolvulus [7]; 320 g/ha): 80% | post-emergence efficacy MATIN (Matricaria inodora [8]; 80 g/ha): 90% | post-emergence efficacy MATIN (Matricaria inodora [8]; 320 g/ha): 90% | post-emergence efficacy ABUTH (Abutilon theophrasti [9]; 80 g/ha): 90% | post-emergence efficacy ABUTH (Abutilon theophrasti [9]; 320 g/ha): 90% | post-emergence efficacy LOLMU (Lolium multiflorum [10]; 80 g/ha): 100% | post-emergence efficacy LOLMU (Lolium multiflorum [10]; 320 g/ha): 100% | post-emergence efficacy VIOTR (Viola tricolor [11]; 80 g/ha): 90% | post-emergence efficacy VIOTR (Viola tricolor [11]; 320 g/ha): 90% | post-emergence efficacy AMARE (Amaranthus retroflexus [12]; 80 g/ha): 80% | post-emergence efficacy AMARE (Amaranthus retroflexus [12]; 320 g/ha): 90% | post-emergence efficacy ALOMY (Alopecurus myosuroides [13]; 80 g/ha): 70% | post-emergence efficacy ALOMY (Alopecurus myosuroides [13]; 320 g/ha): 90% | ECHCG pre-emergence efficacy (herbicidal activity) (Echinochloa crus-galli [14]; Dosage 80 g/ha): 100% | ECHCG pre-emergence efficacy (herbicidal activity) (Echinochloa crus-galli [14]; Dosage 320 g/ha): 100% | VERPE pre-emergence efficacy (herbicidal activity) (Veronica persica [15]; Dosage 80 g/ha): 100% | VERPE pre-emergence efficacy (herbicidal activity) (Veronica persica [15]; Dosage 320 g/ha): 100% | AVEFA pre-emergence efficacy (herbicidal activity) (Avena fatua [16]): 100% | PHBPU pre-emergence efficacy (herbicidal activity) (Ipomoea purpurea [17]; Dosage 320 g/ha): 100% | SETVI pre-emergence efficacy (herbicidal activity) (Setaria viridis [18]; Dosage 80 g/ha): 100% | SETVI pre-emergence efficacy (herbicidal activity) (Setaria viridis [18]; Dosage 320 g/ha): 100% | STEME pre-emergence efficacy (herbicidal activity) (Stellaria media [19]; Dosage 80 g/ha): 100% | STEME pre-emergence efficacy (herbicidal activity) (Stellaria media [19]; Dosage 320 g/ha): 100% | POLCO pre-emergence efficacy (herbicidal activity) (Polygonum convolvulus [20]; Dosage 80 g/ha): 100% | POLCO pre-emergence efficacy (herbicidal activity) (Polygonum convolvulus [20]; Dosage 320 g/ha): 100% | MATIN pre-emergence efficacy (herbicidal activity) (Matricaria inodora [21]; Dosage 80 g/ha): 100% | MATIN pre-emergence efficacy (herbicidal activity) (Matricaria inodora [21]; Dosage 320 g/ha): 100% | ABUTH pre-emergence efficacy (herbicidal activity) (Abutilon theophrasti [22]; Dosage 80 g/ha): 70% | ABUTH pre-emergence efficacy (herbicidal activity) (Abutilon theophrasti [22]; Dosage 320 g/ha): 100% | LOLMU pre-emergence efficacy (herbicidal activity) (Lolium multiflorum [23]; Dosage 80 g/ha): 100% | LOLMU pre-emergence efficacy (herbicidal activity) (Lolium multiflorum [23]; Dosage 320 g/ha): 100% | VIOTR pre-emergence efficacy (herbicidal activity) (Viola tricolor [24]; Dosage 80 g/ha): 100% | VIOTR pre-emergence efficacy (herbicidal activity) (Viola tricolor [24]; Dosage 320 g/ha): 100% | AMARE pre-emergence efficacy (herbicidal activity) (Amaranthus retroflexus [25]; Dosage 80 g/ha): 100% | AMARE pre-emergence efficacy (herbicidal activity) (Amaranthus retroflexus [25]; Dosage 320 g/ha): 100% | ALOMY pre-emergence efficacy (herbicidal activity) (Alopecurus myosuroides [26]; Dosage 80 g/ha): 100% | ALOMY pre-emergence efficacy (herbicidal activity) (Alopecurus myosuroides [26]; Dosage 320 g/ha): 100% | logP (HCOOH) (logP (HCOOH); HCOOH): oily; logP (HCOOH): 2.02; 1H NMR (CDCl3, 400 MHZ, δ in ppm): 2.10 (m, 1H, 1H of

Cc1cc2c(o1)CC(C)(C)CC2Nc1ncc(C(F)(F)F)c(N)n1 (stereo not shown) [compound 21, 5-(Trifluoromethyl)-N2-(2,6,6-trimethyl-4,5,6,7-tetrahydro-1-benzofuran-4-yl)pyrimidine-2,4-diamine]
melting point: 182.6 °C | chromatographic logP (logP (HCOOH)): 2.23

Cc1cc2c(s1)CCC[C@H]2Nc1ncc(C(F)(F)F)c(N)n1 [compound 47, N2-[(4R)-2-Methyl-4,5,6,7-tetrahydrobenzothiophen-4-yl]-5-(trifluoromethyl)pyrimidine-2,4-diamine]
post-emergence efficacy ECHCG (Echinochloa crus-galli [1]; 80 g/ha): 100% | post-emergence efficacy ECHCG (Echinochloa crus-galli [1]; 320 g/ha): 100% | post-emergence efficacy VERPE (Veronica persica [2]; 80 g/ha): 100% | post-emergence efficacy AVEFA (Avena fatua [3]; 80 g/ha): 100% | post-emergence efficacy AVEFA (Avena fatua [3]; 320 g/ha): 90% | post-emergence efficacy PHBPU (Ipomoea purpurea [4]; 80 g/ha): 100% | post-emergence efficacy PHBPU (Ipomoea purpurea [4]; 320 g/ha): 100% | post-emergence efficacy SETVI (Setaria viridis [5]; 80 g/ha): 90% | post-emergence efficacy SETVI (Setaria viridis [5]; 320 g/ha): 90% | post-emergence efficacy STEME (Stellaria media [6]; 80 g/ha): 100% | post-emergence efficacy STEME (Stellaria media [6]; 320 g/ha): 100% | post-emergence efficacy POLCO (Polygonum convolvulus [7]; 80 g/ha): 80% | post-emergence efficacy POLCO (Polygonum convolvulus [7]; 320 g/ha): 80% | post-emergence efficacy MATIN (Matricaria inodora [8]; 80 g/ha): 90% | post-emergence efficacy MATIN (Matricaria inodora [8]; 320 g/ha): 100% | post-emergence efficacy ABUTH (Abutilon theophrasti [9]; 80 g/ha): 90% | post-emergence efficacy ABUTH (Abutilon theophrasti [9]; 320 g/ha): 90% | post-emergence efficacy LOLMU (Lolium multiflorum [10]; 320 g/ha): 80% | post-emergence efficacy VIOTR (Viola tricolor [11]; 80 g/ha): 100% | post-emergence efficacy VIOTR (Viola tricolor [11]; 320 g/ha): 100% | post-emergence efficacy AMARE (Amaranthus retroflexus [12]; 320 g/ha): 90% | post-emergence efficacy ALOMY (Alopecurus myosuroides [13]; 320 g/ha): 100% | ECHCG pre-emergence efficacy (herbicidal activity) (Echinochloa crus-galli [14]; Dosage 80 g/ha): 100% | ECHCG pre-emergence efficacy (herbicidal activity) (Echinochloa crus-galli [14]; Dosage 320 g/ha): 100% | VERPE pre-emergence efficacy (herbicidal activity) (Veronica persica [15]; Dosage 80 g/ha): 100% | VERPE pre-emergence efficacy (herbicidal activity) (Veronica persica [15]; Dosage 320 g/ha): 100% | AVEFA pre-emergence efficacy (herbicidal activity) (Avena fatua [16]): 100% | PHBPU pre-emergence efficacy (herbicidal activity) (Ipomoea purpurea [17]; Dosage 80 g/ha): 100% | PHBPU pre-emergence efficacy (herbicidal activity) (Ipomoea purpurea [17]; Dosage 320 g/ha): 100% | SETVI pre-emergence efficacy (herbicidal activity) (Setaria viridis [18]; Dosage 80 g/ha): 100% | SETVI pre-emergence efficacy (herbicidal activity) (Setaria viridis [18]; Dosage 320 g/ha): 100% | CYPES pre-emergence efficacy (herbicidal activity) (Cyperus esculentus): 80% | STEME pre-emergence efficacy (herbicidal activity) (Stellaria media [19]; Dosage 80 g/ha): 100% | STEME pre-emergence efficacy (herbicidal activity) (Stellaria media [19]; Dosage 320 g/ha): 100% | POLCO pre-emergence efficacy (herbicidal activity) (Polygonum convolvulus [20]; Dosage 80 g/ha): 100% | POLCO pre-emergence efficacy (herbicidal activity) (Polygonum convolvulus [20]; Dosage 320 g/ha): 100% | MATIN pre-emergence efficacy (herbicidal activity) (Matricaria inodora [21]; Dosage 80 g/ha): 100% | MATIN pre-emergence efficacy (herbicidal activity) (Matricaria inodora [21]; Dosage 320 g/ha): 100% | ABUTH pre-emergence efficacy (herbicidal activity) (Abutilon theophrasti [22]; Dosage 80 g/ha): 80% | ABUTH pre-emergence efficacy (herbicidal activity) (Abutilon theophrasti [22]; Dosage 320 g/ha): 100% | LOLMU pre-emergence efficacy (herbicidal activity) (Lolium multiflorum [23]; Dosage 320 g/ha): 100% | VIOTR pre-emergence efficacy (herbicidal activity) (Viola tricolor [24]; Dosage 80 g/ha): 100% | VIOTR pre-emergence efficacy (herbicidal activity) (Viola tricolor [24]; Dosage 320 g/ha): 100% | AMARE pre-emergence efficacy (herbicidal activity) (Amaranthus retroflexus [25]; Dosage 80 g/ha): 100% | AMARE pre-emergence efficacy (herbicidal activity) (Amaranthus retroflexus [25]; Dosage 320 g/ha): 100% | ALOMY pre-emergence efficacy (herbicidal activity) (Alopecurus myosuroides [26]; Dosage 80 g/ha): 80% | ALOMY pre-emergence efficacy (herbicidal activity) (Alopecurus myosuroides [26]; Dosage 320 g/ha): 100% | chromatographic logP (logP (HCOOH)): 2.62

Reference: patent US10251395B2, “Substituted furano-/thienocycloalkylamino-2-pyrimidine derivatives and use thereof for controlling undesired plant growth” (Bayer CropScience Aktiengesellschaft, priority 2015, dated 2019)
